Data set [1] in a line: Oral bioavailability in dog at 10 mg/kg measured upto 24 hrs by LC-MS/MS analysis. The data set is classed as ADME, organism-based, Canis lupus familiaris. Conditions: in vivo.
Data set [2] can be described thus: Clearance in dog at 2 mg/kg, iv measured upto 24 hrs by LC-MS/MS analysis. Type of data set: ADME, organism-based, Canis lupus familiaris. Conditions: in vivo.
A short description of data set [3]: AUC(0 to t) in Sprague-Dawley rat at 10 mg/kg, po measured upto 24 hrs by LC-MS/MS analysis. Type of data set: ADME, organism-based. Particulars: in vivo.
A short description of data set [4]: Tmax in dog at 10 mg/kg, po measured upto 24 hrs by LC-MS/MS analysis. The data set is classed as ADME, organism-based, Canis lupus familiaris. Conditions: in vivo.
The nature of data set [5]: Oral bioavailability in Sprague-Dawley rat at 10 mg/kg measured upto 24 hrs by LC-MS/MS analysis. The data set is classed as ADME, organism-based. Particulars: in vivo.
A short description of data set [6]: Volume of distribution at steady state in Sprague-Dawley rat at 5 mg/kg, iv measured upto 24 hrs by LC-MS/MS analysis. Type of data set: ADME, organism-based. Conditions: in vivo, read-out: Vdss.
The nature of data set [7]: Tmax in Sprague-Dawley rat at 10 mg/kg, po measured upto 24 hrs by LC-MS/MS analysis. Type of data set: ADME, organism-based. Conditions: in vivo.
Data set [8] is described as follows: Half life in dog at 2 mg/kg, iv measured upto 24 hrs by LC-MS/MS analysis. The data set is classed as ADME, organism-based, Canis lupus familiaris. Conditions: in vivo.
Data set [9] is described as follows: Volume of distribution at steady state in dog at 2 mg/kg, iv measured upto 24 hrs by LC-MS/MS analysis. The data set is classed as ADME, organism-based, Canis lupus familiaris. Conditions: in vivo, read-out: Vdss.
A short description of data set [10]: Cmax in Sprague-Dawley rat at 5 mg/kg, iv measured upto 24 hrs by LC-MS/MS analysis. The data set is classed as ADME, organism-based. The arrangement: dose 5 mg/kg, time < 24 hrs, route iv. Conditions: in vivo.
The nature of data set [11]: Half life in Sprague-Dawley rat at 10 mg/kg, po measured upto 24 hrs by LC-MS/MS analysis. The data set is classed as ADME, organism-based. Conditions: in vivo.
A short description of data set [12]: Clearance in Sprague-Dawley rat at 5 mg/kg, iv measured upto 24 hrs by LC-MS/MS analysis. Type of data set: ADME, organism-based. Conditions: in vivo.
A short description of data set [13]: AUC(0 to t) in Sprague-Dawley rat at 5 mg/kg, iv measured upto 24 hrs by LC-MS/MS analysis. Conditions: in vivo. The data set is classed as ADME, organism-based.
The nature of data set [14]: Half life in dog at 10 mg/kg, po measured upto 24 hrs by LC-MS/MS analysis. Conditions: in vivo. The data set is classed as ADME, organism-based, Canis lupus familiaris.
A short description of data set [15]: Cmax in dog at 2 mg/kg, iv measured upto 24 hrs by LC-MS/MS analysis. The data set is classed as ADME, organism-based, Canis lupus familiaris. On the set-up: time < 24 hrs, dose 2 mg/kg, route iv. Particulars: in vivo.
A short description of data set [16]: Cmax in Sprague-Dawley rat at 10 mg/kg, po measured upto 24 hrs by LC-MS/MS analysis. Type of data set: ADME, organism-based. On the set-up: dose 10 mg/kg, time < 24 hrs, route po. Conditions: in vivo.
Data set [17] can be described thus: Half life in Sprague-Dawley rat at 5 mg/kg, iv measured upto 24 hrs by LC-MS/MS analysis. Type of data set: ADME, organism-based. Particulars: in vivo.
Data set [18] in a line: Cmax in dog at 10 mg/kg, po measured upto 24 hrs by LC-MS/MS analysis. The data set is classed as ADME, organism-based, Canis lupus familiaris. The arrangement: dose 10 mg/kg, time < 24 hrs, route po. Conditions: in vivo.
Data set [19] can be described thus: AUC(0 to t) in dog at 10 mg/kg, po measured upto 24 hrs by LC-MS/MS analysis. The data set is classed as ADME, organism-based, Canis lupus familiaris. Particulars: in vivo.
Data set [20] is described as follows: AUC(0 to t) in dog at 2 mg/kg, iv measured upto 24 hrs by LC-MS/MS analysis. Type of data set: ADME, organism-based, Canis lupus familiaris. Conditions: in vivo.

On to `Cc1cn(C2=CCC3C4CC=C5C[C@@H](NC(=O)c6ccc(F)cc6)CC[C@]5(C)C4CC[C@]23C)cn1.Cl` (stereo not given in full), for which the values for the bioavailability in [1] and in [5] were 44% and 93%, respectively. Also, the clearance – broadly, the volume of plasma or blood freed of the substance per unit of time – in [2] worked out at 6.86 mL/min/kg; in data set [12], 1.82 mL/min/kg. The AUCt turned out to be 84338 h/ng/mL in data set [3], 45408 h/ng/mL in [13], 10460 h/ng/mL in data set [19] and 4737 h/ng/mL in [20]. Further, the figures for the Tmax in [4] and in data set [7] were 6 h and 0.83 h, respectively. Also, the figures for the Vd in data set [6] and in [9] were 0.77 L/kg and 1.92 L/kg, respectively. For the same compound, the half-life (commonly how long it takes for the measured level to halve) in data set [8] was 5.15 h; in [11], 6.82 h; in data set [14], 12.4 h; in [17] it was 6.39 h. Moreover, the Cmax (as a rule, the highest concentration seen after dosing) in data set [10] came to 14300 ng/mL; in [15] it was 1860 ng/mL; in data set [16], 8800 ng/mL; in data set [18], 907 ng/mL.
